Reference: patent US9751837B2, “Kinase inhibitors” (RESPIVERT LIMITED, priority 2014, dated 2017)
≈ marks a conversion by molar mass, not a printed value. Where a name gives a salt, the structure may show the parent alone. Read-outs that look alike come from different tables or passages of the source.

Assay: Solubility in fasted-state simulated colonic fluid (FaSSCoF) at pH 6.5
Type: physicochemical
Settings: for solubility thermodynamic at 24 h: 25 °C, pH 6.5, fassgf or other biorelevant, thermodynamic from solid
Description: The solubilities of compounds of the invention in FaSSCoF at pH 6.5 are determined using a modification of a previously-reported procedure (Vertzoni, M., et al. Pharm. Res. 2010, 27, 2187-2196). In place of the bile salt extract employed in the original procedure (which extract is no longer available), the modified procedure uses a mixture of sodium taurochlorate (0.15 g), glycocholic acid (0.15 g), ursodeoxycholic acid (0.05 g), cholic acid (0.05 g), and glycodeoxycholic acid (0.05 g). These five bile acids are ground together with a mortar and pestle to produce a fine white powder that is incorporated into the FaSSCoF, as outlined below.
Tris(hydroxymethyl)aminomethane (Tris; 0.275 g) and maleic acid (0.44 g) are dissolved in water (35 mL) to give a solution whose pH is adjusted to 6.5 by treatment with 0.5M NaOH (ca. 12 mL). The solution is then made up to 50 mL with water. A portion of this Tris/maleate buffer solution (ca. 25 mL) is added to a 0.5 L round-bottomed flask, before being treated with 0.00565 g of the bile acid mixture described above. Solutions of phosphatidylcholine (0.0111 g) in DCM (0.15 mL) and palmitic acid (0.0013 g) in DCM (0.15 mL) are added, then the organic solvent is evaporated off under reduced pressure at 40° C. until a clear solution, with no perceptible DCM odour, is achieved. The volume of the evaporated solution is adjusted to 50 mL by addition of the remainder of Tris/maleate buffer, then BSA (0.115 g) is added, before being dissolved by gentle agitation.
Test compounds are suspended in the pH 6.5 FaSSCoF medium to give a maximum final concentration of 2-10 mg/mL. The suspensions are equilibrated at 25° C. for 24 h, before being filtered through a glass fibre C filter. The filtrates are then diluted as appropriate for injection and quantification by HPLC with reference to a standard. Different volumes of the standard, diluted and undiluted sample solutions are injected and the solubilities are calculated using the peak areas determined by integration of the peak found at the same retention time as the principal peak in the standard injection.

[1] = pH 6.5 FaSSCoF Solubility (mg/mL) Run 1
[2] = pH 6.5 FaSSCoF Solubility (mg/mL) Run 2

SMILES	solubility thermodynamic at 24 h [1]	solubility thermodynamic at 24 h [2]	also measured
COc1cc(Nc2cc(Oc3ccc(NC(=O)Nc4cc(C(C)(C)C)cc(NS(C)(=O)=O)c4OC)c4ccccc34)ccn2)ccc1C(=O)NC[C@@H]1O[C@H](CO)[C@@H](O)[C@H](O)[C@H]1O [17(co), 4-((4-((4-(3-(5-(tert-Butyl)-2-methoxy-3-(methylsulfonamido)phenyl)ureido)naphthalen-1-yl)oxy)pyridin-2-yl)amino)-2-methoxy-N-(((2S,3R,4R,5S,6R)-3,4,5-trihydroxy-6-(hydroxymethyl)tetrahydro-2H-pyran-2-yl)methyl)benzamide]			solubility thermodynamic at 24 h (FaSSCoF pH 6.5, 25° C., 24 h, Run 1, read-out: pH 6.5 FaSSCoF Solubility (mg/mL) Run 1): 0.005 mg/mL (≈ 5.71 µM); solubility thermodynamic at 24 h (FaSSCoF pH 6.5, 25° C., 24 h, Run 2, read-out: pH 6.5 FaSSCoF Solubility (mg/mL) Run 2): 0.006 mg/mL (≈ 6.86 µM)
COc1cc(Nc2cc(Oc3ccc(NC(=O)Nc4cc(C(C)(C)C)cc(NS(C)(=O)=O)c4OC)c4ccccc34)ccn2)ccc1C(=O)NCCOCCOCCOP(=O)(O)O [19 (sodium salt), 2-(2-(2-(4-((4-((4-(3-(5-(tert-Butyl)-2-methoxy-3-(methylsulfonamido)phenyl)ureido)-naphthalen-1-yl)oxy)pyridin-2-yl)amino)-2-methoxybenzamido)ethoxy)ethoxy)ethyl dihydrogen phosphate]			pH 6.5 FaSSCoF Solubility (mg/mL) Run 1 (24 h, pH 6.5): >4.7 mg/mL
COc1cc(Nc2cc(Oc3ccc(NC(=O)Nc4cc(C(C)(C)C)cc(NS(C)(=O)=O)c4OC)c4ccccc34)ccn2)cc(OC)c1C(=O)NCCOCCOCCOP(=O)(O)O [47 (sodium salt), 2-(2-(2-(4-((4-((4-(3-(5-(tert-butyl)-2-methoxy-3-(methylsulfonamido)phenyl)ureido)-naphthalen-1-yl)oxy)pyridin-2-yl)amino)-2,6-dimethoxybenzamido)ethoxy)ethoxy)ethyl dihydrogen phosphate]	> 1.9 mg/mL	> 2 mg/mL	
COc1c(NC(=O)Nc2ccc(Oc3ccnc(Nc4ccc(P(C)(=O)O)c(N(C)C)c4)c3)c3ccccc23)cc(C(C)(C)C)cc1NS(C)(=O)=O [68 (sodium salt)]	0.02 mg/mL	0.02 mg/mL	
COc1cc(Nc2cc(Oc3ccc(NC(=O)Nc4cc(C(C)(C)C)cc(NS(C)(=O)=O)c4OC)c4ccccc34)ccn2)ccc1S(=O)(=O)CCCN1CCOCC1 [Example 20, N-(5-(tert-Butyl)-2-methoxy-3-(3-(4-((2-((3-methoxy-4-((3-morpholinopropyl)sulfonyl)phenyl)-amino)pyridin-4-yl)oxy)naphthalen-1-yl)ureido)phenyl)methanesulfonamide]	0.004 mg/mL (≈ 4.72 µM)		
COc1c(NC(=O)Nc2ccc(Oc3ccnc(Nc4ccc(C(=O)NCCN5CCOCC5)c(N(C)C)c4)c3)c3ccccc23)cc(C(C)(C)C)cc1NS(C)(=O)=O [Example 21, 4-((4-((4-(3-(5-(tert-Butyl)-2-methoxy-3-(methylsulfonamido)phenyl)ureido)naphthalen-1-yl)oxy)pyridin-2-yl)amino)-2-(dimethylamino)-N-(2-morpholinoethyl)benzamide]	0.01 mg/mL (≈ 12.1 µM)	0.01 mg/mL (≈ 12.1 µM)	
COc1cc(Nc2cc(Oc3ccc(NC(=O)Nc4cc(C(C)(C)C)cc(NS(C)(=O)=O)c4OC)c4ccccc34)ccn2)cc(OC)c1C(=O)NCCCN1CCOCC1 [Example 23, 4-((4-((4-(3-(5-(tert-Butyl)-2-methoxy-3-(methylsulfonamido)phenyl)ureido)naphthalen-1-yl)oxy)pyridin-2-yl)amino)-2,6-dimethoxy-N-(3-morpholinopropyl)benzamide]	0.008 mg/mL (≈ 9.35 µM)	0.008 mg/mL (≈ 9.35 µM)	
COc1cc(Nc2cc(Oc3ccc(NC(=O)Nc4cc(C(C)(C)C)cc(NS(C)(=O)=O)c4OC)c4ccccc34)ccn2)cc(OC)c1C(=O)NCCN1CCN(CCO)CC1 [Example 37, 4-((4-((4-(3-(5-(tert-Butyl)-2-methoxy-3-(methylsulfonamido)phenyl)ureido)naphthalen-1-yl)oxy)pyridin-2-yl)amino)-N-(2-(4-(2-hydroxyethyl)piperazin-1-yl)ethyl)-2,6-dimethoxybenzamide]	0.025 mg/mL (≈ 28.2 µM)	0.024 mg/mL (≈ 27.1 µM)	solubility thermodynamic at 24 h (pH 6.5 FaSSCoF Solubility (mg/mL) Run 3): 0.007 mg/mL (≈ 7.91 µM); solubility thermodynamic at 24 h (pH 6.5 FaSSCoF Solubility (mg/mL) Run 4): 0.006 mg/mL (≈ 6.78 µM)

Now from value to molecule, other results behind:

solubility thermodynamic at 24 h [1]	solubility thermodynamic at 24 h [2]	SMILES	also measured
0.946 mg/mL	0.881 mg/mL	COc1cc(Nc2cc(Oc3ccc(NC(=O)Nc4cc(C(C)(C)C)cc(NS(C)(=O)=O)c4OC)c4ccccc34)ccn2)ccc1C(=O)NCCOCCOCCOP(=O)(O)O [19 (ammonium salt), 2-(2-(2-(4-((4-((4-(3-(5-(tert-Butyl)-2-methoxy-3-(methylsulfonamido)phenyl)ureido)-naphthalen-1-yl)oxy)pyridin-2-yl)amino)-2-methoxybenzamido)ethoxy)ethoxy)ethyl dihydrogen phosphate]	
0.001 mg/mL	0.001 mg/mL	COc1cc(Nc2cc(Oc3ccc(NC(=O)Nc4cc(C(C)(C)C)cc(NS(C)(=O)=O)c4OC)c4ccccc34)ccn2)ccc1C(=O)NCCCCCCC(=O)O [34 (hydrochloride salt), 7-(4-((4-((4-(3-(5-(tert-Butyl)-2-methoxy-3-(methylsulfonamido)phenyl)ureido)naphthalen-1-yl)oxy)pyridin-2-yl)amino)-2-methoxybenzamido)heptanoic acid, hydrochloride salt]	
> 3.5 mg/mL	> 4.2 mg/mL	COc1cc(Nc2cc(Oc3ccc(NC(=O)Nc4cc(C(C)(C)C)cc(NS(C)(=O)=O)c4OC)c4ccccc34)ccn2)ccc1C(=O)NCCOP(=O)(O)O [35 (sodium salt), 2-(4-((4-((4-(3-(5-(tert-Butyl)-2-methoxy-3-(methylsulfonamido)phenyl)ureido)naphthalen-1-yl)oxy)pyridin-2-yl)amino)-2-methoxybenzamido)ethyl dihydrogen phosphate]	
> 2.8 mg/mL	> 2.8 mg/mL	COc1cc(Nc2cc(Oc3ccc(NC(=O)Nc4cc(C(C)(C)C)cc(NS(C)(=O)=O)c4OC)c4ccccc34)ccn2)ccc1CP(C)(=O)O [70 (sodium salt)]	
0.011 mg/mL (≈ 12.9 µM)	0.011 mg/mL (≈ 12.9 µM)	COc1cc(Nc2cc(Oc3ccc(NC(=O)Nc4cc(C(C)(C)C)cc(NS(C)(=O)=O)c4OC)c4ccccc34)ccn2)ccc1C(=O)NCCN1CCN(C2CC2)CC1 [Example 26, 4-((4-((4-(3-(5-(tert-Butyl)-2-methoxy-3-(methylsulfonamido)phenyl)ureido)naphthalen-1-yl)oxy)pyridin-2-yl)amino)-N-(2-(4-cyclopropylpiperazin-1-yl)ethyl)-2-methoxybenzamide]	
0.005 mg/mL (≈ 6.04 µM)	0.005 mg/mL (≈ 6.04 µM)	COc1cc(Nc2cc(Oc3ccc(NC(=O)Nc4cc(C(C)(C)C)cc(NS(C)(=O)=O)c4OC)c4ccccc34)ccn2)ccc1C(=O)NCC[N+]1([O-])CCOCC1 [Example 33, 4-(2-(4-((4-((4-(3-(5-(tert-Butyl)-2-methoxy-3-(methylsulfonamido)phenyl)ureido)naphthalen-1-yl)oxy)pyridin-2-yl)amino)-2-methoxybenzamido)ethyl)morpholine 4-oxide]	
0.005 mg/mL (≈ 5.87 µM)	0.005 mg/mL (≈ 5.87 µM)	COc1cc(Nc2cc(Oc3ccc(NC(=O)Nc4cc(C(C)(C)C)cc(NS(C)(=O)=O)c4OC)c4ccccc34)ccn2)ccc1S(=O)(=O)CCOCCOCCO [Example 40, N-(5-(tert-Butyl)-3-(3-(4-((2-((4-((2-(2-(2-hydroxyethoxy)ethoxy)ethyl)sulfonyl)-3-methoxyphenyl)amino)pyridin-4-yl)oxy)naphthalen-1-yl)ureido)-2-methoxyphenyl)-methanesulfonamide]	
